32 molecules from BindingDB's records for doi:10.1021/jm00089a021 (Tanabe Seiyaku, 1992) can be followed below.

Molecules are shown by their SMILES.

The target of the experiment is Aldose reductase (Oryctolagus cuniculus). In words: Tested in vitro for inhibitory activity against partially purified aldose reductase from male rabbit lens.
One may read the IC50 as the concentration that inhibits the measured activity by half. Lower therefore signals inhibition by little substance. The molecule `CN1C(=O)Nc2c(cc(F)c(F)c2F)C12NC(=O)NC2=O` (configuration not stated) registered an IC50 of 140 nM.

Molecule `NN1C(=O)Nc2ccccc2C12NC(=O)NC2=O` (configuration not stated) yielded an IC50 of 4000 nM.

In the case of `Cc1ccc2c(c1)NC(=O)N(C)C21NC(=O)NC1=O` (configuration not stated), the IC50 is 220 nM.

As for `O=C1NC(=O)C2(N1)NC(=O)Nc1ccccc12` (configuration not stated), the midpoint of inhibition, the IC50, lay at 1400 nM.

Turning to `CN1C(=O)Nc2cccc(Cl)c2C12NC(=O)NC2=O` (configuration not stated), the IC50 came out at 860 nM.

Take `CN1C(=O)Nc2cc(Cl)c([N+](=O)[O-])cc2C12NC(=O)NC2=O` (configuration not stated): the IC50 amounted to 120 nM.

Consider `CN1C(=O)Nc2cc(Cl)ccc2C12NC(=O)NC2=O` (configuration not stated), for which half-maximal inhibition (IC50) was put at 94 nM.

With `O=C1NC(=O)C2(N1)c1ccccc1NC(=O)N2Cc1ccccc1` (configuration not stated), the IC50 was > 10000 nM.

In turn, `CN1C(=O)Nc2ccc([N+](=O)[O-])cc2C12NC(=O)NC2=O` (configuration not stated) yielded an IC50 of 73 nM.

Consider `CN1C(=O)Nc2ccc(Cl)cc2[C@@]12NC(=O)NC2=O`, for which the IC50 stood at 22 nM.

On to `CN1C(=O)NC2(C1=O)c1ccccc1NC(=O)N2C` (configuration not stated), for which the IC50 is > 10000 nM.

`CN1C(=O)Nc2ccc(Cl)cc2[C@]12NC(=O)NC2=O`: the midpoint of inhibition, the IC50, lay at 770 nM.

In the case of `CN1C(=O)Nc2ccc(Br)cc2C12NC(=O)NC2=O` (configuration not stated), the IC50 is 52 nM.

For the molecule `CN1C(=O)Nc2ccc(Cl)cc2C12NC(=O)NC2=O` (configuration not stated), the IC50 stood at 56 nM.

In turn, `Cc1cccc2c1C1(NC(=O)NC1=O)N(C)C(=O)N2` (configuration not stated) gave an IC50 of 400 nM.

In the case of `CN1C(=O)Nc2ccc(OC(=O)c3ccccc3)cc2C12NC(=O)NC2=O` (configuration not stated), the IC50 is 2000 nM.

`CCN1C(=O)Nc2ccccc2C12NC(=O)NC2=O` (configuration not stated) gave an IC50 of 1000 nM.

Consider `CN1C(=O)N(C)C2(C1=O)c1ccccc1NC(=O)N2C` (configuration not stated), for which the IC50 was > 10000 nM.

As to `CN1C(=O)Nc2ccc(O)cc2C12NC(=O)NC2=O` (configuration not stated), the IC50 was > 10000 nM.

For the molecule `CN1C(=O)Nc2ccccc2C12SC(N)=NC2=O` (configuration not stated), the IC50 is > 10000 nM.

Turning to `CN1C(=O)NC(=O)C12c1ccccc1NC(=O)N2C` (configuration not stated), the IC50 is > 10000 nM.

As to `CN1C(=O)Nc2cc(Cl)c(Cl)cc2C12NC(=O)NC2=O` (configuration not stated), inhibition was half-maximal at 74 nM (IC50).

Regarding `CC(C)N1C(=O)Nc2ccccc2C12NC(=O)NC2=O` (configuration not stated), the IC50 was > 10000 nM.

On to `CN1C(=O)Nc2ccccc2C12NC(=S)NC2=O` (configuration not stated), for which the IC50 was > 10000 nM.

Molecule `CN1C(=O)Nc2cc(N3CCOCC3)c([N+](=O)[O-])cc2C12NC(=O)NC2=O` (configuration not stated) showed an IC50 of 430 nM.

`CN1C(=O)Nc2c([N+](=O)[O-])cc(Cl)cc2C12NC(=O)NC2=O` (configuration not stated) returned an IC50 of 46 nM.

Regarding `Cc1cc2c(cc1Cl)C1(NC(=O)NC1=O)N(C)C(=O)N2` (configuration not stated), it took 30 nM to reach half-maximal inhibition (IC50).

Regarding `CN1C(=O)Nc2cc3c(cc2C12NC(=O)NC2=O)OCO3` (configuration not stated), inhibition was half-maximal at 1800 nM (IC50).

`COc1ccc2c(c1)NC(=O)N(C)C21NC(=O)NC1=O` (configuration not stated) registered an IC50 of 360 nM.

For `CCCCN1C(=O)Nc2ccccc2C12NC(=O)NC2=O` (configuration not stated), the IC50 was > 10000 nM.

As to `CN1C(=O)Nc2ccc(N)cc2C12NC(=O)NC2=O` (configuration not stated), the IC50 was > 10000 nM.

Take `O=C1NC(=O)C2(N1)c1ccccc1NC(=O)N2O` (configuration not stated): the IC50 was > 10000 nM.
